# Source: US20230192648A1, “IMMUNOREGULATORY COMPOUNDS” (NIMML INSTITUTE, priority 2021, published 2023)
# Entries after “also recorded” stand apart in the source; their conditions may differ.
# Key:
# [1] = system: bm12 model of systemic inflammation; test: bm12 mouse model of systemic inflammation; format: in vivo
# [2] = system: influenza A (H1N1); test: Influenza A (H1N1) infection of mice, survival; format: in vivo, mouse; conditions: 25 mg/kg orally daily, FIG. 4; for delay of first mortality: vehicle mortality beginning at day 6
# Procedure: Wild type C57BL/6 mice were anesthetized by isoflurane inhalation. Mice were infected with influenza A (H1N1) intranasally at a challenge titer of 2 x 10^4 TCID50/mL. Mice were treated daily with NIM-1001-2, NIM-1001-8, or NIM-1001-9 at a dose of 25 mg/kg orally via gavage. Mice were monitored daily.
# [3] = system: DSS model of acute inflammatory bowel disease; test: DSS model of acute inflammatory bowel disease; format: in vivo, mouse; conditions: oral, 10 mg/kg once daily, relative to vehicle; for proportion of CD4+ T cells in the colonic lamina propria: FIG. 3A; for F4/80hi macrophages (colon): FIG. 3C
# Procedure: DSS model. Mice were given DSS in drinking water for seven days. At project initiation, mice were 8 weeks of age and began dosing 24 hours after being placed on DSS. Mice were weighed and scored daily for symptoms of disease (diarrhea, rectal bleeding, rectal inflammation, overall behavior). Treatments were prepared within a 0.5% methylcellulose (12-15 cP) solution. The dosage used was 10 mg/kg delivered once daily. Flow Cytometry. Colons were collected into RPMI/FBS buffer containing collagenase (300 U/mL) and DNase (50 U/mL) for digestion. Tissues were digested for 60 minutes under stirring at 37° C. Resultant cellular suspensions were filtered through 100 µm strainers, centrifuged (300 x g, 8 min), and washed in fresh RPMI. Following filtration of the resulting single cell suspensions, immune cells were purified by Percoll gradient of cell-containing 40% Percoll overlayed onto 70% Percoll solution. After centrifugation, interphase was collected and washed to obtain enriched colonic lamina propria cell fractions. Cells were labeled with mixtures of extracellular (CD45, CD3, CD4, CD8, CD25, F4/80, CD11b, MHCII) antibodies in a sequential live staining in 96-well plates. Data was acquired using a FACS Celesta flow cytometer with FACSDiva software.
# [4] = system: NOD model of Sjogren's syndrome; test: NOD mouse model of Sjogren's syndrome; format: in vivo; conditions: relative to vehicle, FIG. 10
# Procedure: NOD model. Ten-week-old female NOD mice were treated with vehicle or NIM-1001-8 (2 or 50 mg/kg) daily by oral gavage for four weeks. After conclusion of the treatment period, submandibular glands were excised and fixed in formalin. Glands were processed and H&E-stained slides were prepared. Slides were scored by blinded reviewer, on a 0 to 4 composite scale encompassing level of inflammation and disease.
# [5] = system: experimental autoimmune encephalomyelitis; test: Mouse model of experimental autoimmune encephalomyelitis (adoptive transfer of MOG-primed splenocytes); format: in vivo; conditions: oral 20 mg/kg from 7 days post-transfer
# Procedure: Mouse model. C57BL6 mice were challenged at 10- to 16-weeks of age with MOG immunization with complete Freund’s adjuvant. MOG emulsion was administered to the cervical region and the hind flank at 100 µL per site to each mouse. After 10 days, spleens were harvested. Isolated splenocytes were cultured in the presence of MOG, IL-12 and anti-interferon gamma for 3 days. Splenocytes were then washed and injected into recipient mice at approximately 20 million cells per mouse. Oral treatment with NIM-1001-8 (20 mg/kg) or vehicle was initiated at 7 days post-transfer. Mice were be scored (0-3) daily for disease activity (coordination, gait, paralysis).
# Flow Cytometry. Spinal cords were excised and digested with papain and DNase. Immune cells were purified by Percoll gradient. Cells were labeled with mixtures of extracellular (CD45, CD3, CD4, CD8, CD25) and intracellular (IL17) antibodies in a sequential live staining in 96-well plates in preparation for flow cytometry. Data was captured on a BD FACS Celesta and analyzed using FacsDiva.
# Histology. Sections of the spinal cord from the lumbar region were extracted and fixed in formalin. Samples were embedded in paraffin and sectioned. By immunohistochemistry, samples were stained for the presence of glial fibrillary acidic protein (GFAP). Slides were assessed microscopically and scored (0-3) for the intensity and frequency of GFAP positive cells. GFAP is a common protein marker for astrocytes in the central nervous system
# [6] = system: MPTP induced model of Parkinson's disease; test: MPTP induced mouse model of Parkinson's disease; format: in vivo; conditions: oral 25 mg/kg once daily
# Procedure: Mouse model. Mice were administered intraperitoneal injections of 1-methyl-4-phenyl-1,2,3,6-tetrahydropyridine (MPTP) and probenecid three times weekly for 4 weeks. In the second week of injections, oral treatment with vehicle or NIM-1001-8 (25 mg/kg) was initiated once daily. After four weeks of injections, motor control was assessed by counting the number of step errors during a challenging beam test. Mice challenged with MPTP were compared to mice challenged with a sham injection (negative control).
# Flow Cytometry. Spleens were excised, crushed and filtered to provide a cellular suspension. Red blood cells were lysed. Cells were labeled with mixtures of extracellular (CD45, CD3, CD4, CD8, CD25) and intracellular (IL21, IL17) antibodies in a sequential live staining in 96-well plates in preparation for flow cytometry. Data was captured on a BD FACS Celesta and analyzed using FacsDiva.
# [7] = system: IMQ-induced model of psoriasis; test: Imiquimod (IMQ) induced model of psoriasis; format: in vivo, mouse; conditions: oral 20 mg/kg daily
# Procedure: IMQ-induced model. C57BL/6 mice were anesthetized, shaved, and briefly exposed to depilatory cream on the surface of the back. Mice were given three days to recover from the procedure prior to entry to the study. After 3 days, mice were challenged with approximately 60 mg of […] imiquimod cream daily by spreading cream over the shaved area. Oral treatment with vehicle or NIM-1001-8 (20 mg/kg) occurred daily.
# Analysis. Spleens were excised and crushed by microscope slides. Red blood cells were hypotonically lysed from the resultant suspension. Samples were filtered, washed and centrifuged prior to staining. Cells were labeled with mixtures of extracellular (CD45, CD3, CD4, CD8, CD25, F4/80, CD11b, MHCII) and intracellular (TNF, IL17) antibodies in a sequential live staining in 96-well plates in preparation for flow cytometry. Data was captured on a BD FACS Celesta and analyzed using FacsDiva.
# [8] = system: genetic model of Alzheimer's disease; test: Genetic mouse model of Alzheimer's disease; format: in vivo; conditions: oral 10 mg/kg for eight weeks, relative to vehicle
# Procedure: Mouse model. Genetically modified mice that spontaneously develop cognitive impairment at 4 months of age and histological signs of disease at 6 months of age were randomized into the project at 24 weeks of age. Mice were orally treated with vehicle or NIM-1001-8 (10 mg/kg) for eight weeks. After eight weeks of treatment, mice were evaluated using a light-dark test to measure the time spent in the light relative to the dark. This is a measure of an anxiety response. Genetically modified mice were compared to age-matched wild-type mice (negative control).
# Flow Cytometry. Brains were collected into RPMI/FBS buffer containing collagenase (300 U/mL) and DNase (50 U/mL) for digestion. Tissues were digested for 30 minutes under stirring at 37° C. Resultant cellular suspensions were filtered through 100 µm strainers, centrifuged (300 x g, 8 min), and washed in fresh RPMI. Following filtration of the resulting single cell suspensions, immune cells were purified by Percoll gradient of cell-containing 40% Percoll overlayed onto 70% Percoll solution. After centrifugation, interphase was collected and washed to obtain enriched immune cell fractions. Cells were labeled with mixtures of extracellular (CD45, CD3, CD4, CD8, CD11b, Gr1) and intracellular (IL17) antibodies in a sequential live staining in 96-well plates. Data was acquired using a FACS Celesta flow cytometer with FACSDiva software.
# [9] = system: MRL/lpr model of systemic lupus erythematosus; test: MRL/lpr genetic mouse model of SLE; format: in vivo; conditions: daily orogastric gavage from 12 weeks of age
# Procedure: Mouse model. Female MRL/lpr mice were obtained at 8 weeks of age. Mice were followed for four weeks for the development of proteinuria. […] Treatment with NIM-1001-8, or vehicle control, were administered by orogastric gavage daily, beginning at 12 weeks of age, in a 0.5% methylcellulose suspension.
# Immunological analysis. Urine was collected for assay for protein content to test for kidney function. Spleens were excised, crushed and filtered to provide a cellular suspension. Red blood cells were lysed. Cells were labeled with mixtures of extracellular (CD45, CD3, CD4, CD8, CD25) and intracellular (FOXP3, IL17) antibodies in a sequential live staining in 96-well plates in preparation for flow cytometry. Data was captured on a BD FACS Celesta and analyzed using FacsDiva.
# [10] = oral gavage daily, 20 mg/kg/day, relative to vehicle; FIG. 2A
# [11] = oral gavage daily, 20 mg/kg/day, relative to vehicle; FIG. 2C
# [12] = oral gavage daily, 20 mg/kg/day, relative to vehicle, FIG. 2C
smiles,measurement,setting,value
CCOC(=O)/C=C/c1cncc(Nc2cc(C(=O)OC)cc(Cl)n2)c1 [NIM-1001-10],spleen size in proportion to overall body weight,[1]; [10],reduced the normalized spleen size at a lesser degree
CCc1noc(/C=C/c2cncc(Oc3cc(-c4nc(C)no4)cc(Cl)n3)c2C)n1 [NIM-1001-2],spleen size in proportion to overall body weight,[1]; [10],significantly reduced
same,proportion of CD25+ FOXP3+ regulatory T cells in the spleen,[1]; [11],significantly increased
same,survival at day 10 (fraction of group),[2]; vehicle 25% survival by day 10,two-thirds
same,delay of first mortality,[2],one day
same,proportion of CD4+ T cells in the colonic lamina propria,[3],reduced
CCNC(=O)/C=C/c1cncc(Nc2nccc(C(=O)NC)n2)c1 [NIM-1001-12],spleen size in proportion to overall body weight,[1]; [10],significantly reduced
same,proportion of CD25+ FOXP3+ regulatory T cells in the spleen,[1]; [11],significantly increased
same,proportion of CD4+ T cells in the colonic lamina propria,[3],reduced
same,F4/80hi macrophages (colon),[3],significant reductions
CCNC(=O)/C=C/c1cncc(Oc2nccc(C(=O)NC)n2)c1C [NIM-1001-9],spleen size in proportion to overall body weight,[1]; [10],significantly reduced
same,proportion of CD25+ FOXP3+ regulatory T cells in the spleen,[1]; [11],significantly increased
same,survival at day 10 (fraction of group),[2]; vehicle 25% survival by day 10,two-thirds
same,delay of first mortality,[2],one day
CCc1noc(/C=C/c2cncc(Nc3cc(-c4nc(C)no4)cc(Cl)n3)c2)n1 [NIM-1001-11],proportion of CD4+ T cells in the colonic lamina propria,[3],reduced
same,F4/80hi macrophages (colon),[3],significant reductions
CCOC(=O)/C=C/c1cncc(Oc2cc(C(=O)NC)cc(Cl)n2)c1C [NIM-1001-4],proportion of CD25+ FOXP3+ regulatory T cells in the spleen,[1]; [12],significantly increased; also recorded: largest magnitude of increase
same,spleen size in proportion to overall body weight,[1]; [10],reduced the normalized spleen size at a lesser degree
"CCOC(=O)/C=C/c1cncc(Oc2cc(C(=O)OC)cc(Cl)n2)c1C [NIM-1001-8, methyl (E)-2-chloro-6-((5-(3-ethoxy-3-oxoprop-1-en-1-yl)-4-methylpyridin-3-yl)oxy)isonicotinate]",proportion of CD25+ FOXP3+ regulatory T cells in the spleen,[1]; [12],significantly increased; also recorded: largest magnitude of increase
same,spleen size in proportion to overall body weight,[1]; [10],significantly reduced
same,histological severity of disease in the submandibular glands (score 0 to 4),[4]; 2 mg/kg daily by oral gavage for four weeks,significantly reduced
same,histological severity of disease in the submandibular glands (score 0 to 4),[4]; 50 mg/kg daily by oral gavage for four weeks,significantly reduced
same,overall disease severity (score 0-3),[5]; FIG. 5A,amelioration
same,proportion of CD4+ IL17+ T cells in the spinal cord,[5]; FIG. 5B,decreased
same,GFAP positive staining in the spinal cord,[5]; FIG. 5C,decreased
same,number of step errors during a challenging beam test,"[6]; relative to vehicle, FIG. 8A",significantly reduced; also recorded: near complete abrogation of MPTP effects
same,CD4+ IL21+ T cells within the spleen,"[6]; P < 0.05, FIG. 8B",significant reductions
same,CD4+ IL17+ T cells within the spleen,"[6]; P < 0.05, FIG. 8C",significant reductions
same,survival at day 10,[2]; vehicle 25% survival by day 10,83%
same,delay of first mortality,[2],two days
same,proportion of CD4+ T cells in the colonic lamina propria,[3],reduced
same,F4/80hi macrophages (colon),[3],significant reductions
same,proportion of TNF+ CD4+ T cells in the spleen,"[7]; relative to vehicle, FIG. 9A",significantly reduced
same,proportion of IL17+ CD4+ T cells in the spleen,"[7]; relative to vehicle, FIG. 9B",significantly reduced
same,proportion of F4/80hi inflammatory macrophages,[7]; FIG. 9C,decreased
same,time spent in the light (light-dark test),"[8]; FIG. 7A, 10 mg/kg",significantly increased; also recorded: restored the time to equal that of the negative control group
same,proportion of neutrophils in the brain,[8]; FIG. 7B,decreased
same,proportion of CD4+ IL17+ T cells in the brain,[8]; FIG. 7C,decreased
same,"urine protein levels, reduction","[9]; relative to vehicle, FIG. 6A",more than two-fold
same,splenic CD25+ FOXP3+ regulatory T cells,"[9]; P < 0.05, FIG. 6B",significant increase
same,splenic CD4+ IL17+ cells,"[9]; P < 0.05, FIG. 6C",significant decrease
